In ChEMBL document CHEMBL4602685, “Yanhusanines A-F, Isoquinoline-Derived Alkaloid Enantiomers from Corydalis yanhusuo and Their Biological Activity” (J Nat Prod, 2020):
Calls of active or inactive are those of the source. The calls are words filed in the database; no cut-off is given here.

Key:
[1] = molecular target: T1, Tyrosine-protein phosphatase non-receptor type 1 (Homo sapiens) (UniProt P18031); test: Inhibition of recombinant human GST-tagged PTP1B using para-nitrophenyl phosphate as substrate incubated for 10 mins by spectrophotometric method
T1 sequence (whole entry): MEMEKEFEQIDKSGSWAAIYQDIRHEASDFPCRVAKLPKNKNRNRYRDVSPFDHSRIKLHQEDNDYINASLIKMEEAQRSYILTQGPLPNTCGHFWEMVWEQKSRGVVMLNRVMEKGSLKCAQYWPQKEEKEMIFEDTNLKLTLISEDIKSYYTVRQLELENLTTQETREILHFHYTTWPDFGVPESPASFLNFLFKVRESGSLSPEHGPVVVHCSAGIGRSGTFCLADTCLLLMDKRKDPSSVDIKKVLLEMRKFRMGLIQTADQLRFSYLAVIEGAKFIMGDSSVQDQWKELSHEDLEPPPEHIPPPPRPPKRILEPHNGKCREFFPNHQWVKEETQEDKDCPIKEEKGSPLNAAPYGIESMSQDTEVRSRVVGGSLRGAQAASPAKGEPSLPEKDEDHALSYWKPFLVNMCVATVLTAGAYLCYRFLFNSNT

[2] = test system: Staphylococcus epidermidis; test: Antimicrobial activity against Staphylococcus epidermidis ATCC 12228 assessed as reduction in microbial growth after 24 hrs by CLSI based broth microdilution method; format: functional, organism-based
A2780 = test: Cytotoxicity against human A2780 cells assessed as reduction in cell viability after 24 hrs by MTT assay; format: functional, cell-based
Peritoneal macrophage = test: Antiinflammatory activity in C57BL/6J mouse Peritoneal macrophages assessed as reduction in LPS-induced TNFalpha secretion after 24 hrs; format: functional, cell-based
Staphylococcus aureus = test: Antimicrobial activity against Staphylococcus aureus ATCC 25923 assessed as reduction in microbial growth after 24 hrs by CLSI based broth microdilution method; format: functional, organism-based
BGC-823 = test: Cytotoxicity against human BGC823 cells assessed as reduction in cell viability after 24 hrs by MTT assay; format: functional, cell-based
[3] = test system: Mycolicibacterium smegmatis; test: Antimicrobial activity against Mycobacterium smegmatis MC2155 […] assessed as reduction in microbial growth after 24 hrs by CLSI based broth microdilution method; format: functional, organism-based
Escherichia coli = test: Antimicrobial activity against Escherichia coli ATCC 25922 assessed as reduction in microbial growth after 24 hrs by CLSI based broth microdilution method; format: functional, organism-based
HepG2 = test: Cytoprotection activity in human HepG2 cells assessed as reduction in acetaminophen-induced cell injury after 48 hrs by MTT assay; format: functional, cell-based
Bel-7402 = test: Cytotoxicity against human Bel7402 cells assessed as reduction in cell viability after 24 hrs by MTT assay; format: functional, cell-based
Liver carboxylesterase 1 = molecular target: T2, Liver carboxylesterase 1 (Homo sapiens, UniProt P23141); test: Inhibition of human CE1 using D-luciferin methyl ester as substrate preincubated for 10 mins followed by substrate addition and measured after 10 mins by luminescence assay
T2 sequence (P23141 whole entry): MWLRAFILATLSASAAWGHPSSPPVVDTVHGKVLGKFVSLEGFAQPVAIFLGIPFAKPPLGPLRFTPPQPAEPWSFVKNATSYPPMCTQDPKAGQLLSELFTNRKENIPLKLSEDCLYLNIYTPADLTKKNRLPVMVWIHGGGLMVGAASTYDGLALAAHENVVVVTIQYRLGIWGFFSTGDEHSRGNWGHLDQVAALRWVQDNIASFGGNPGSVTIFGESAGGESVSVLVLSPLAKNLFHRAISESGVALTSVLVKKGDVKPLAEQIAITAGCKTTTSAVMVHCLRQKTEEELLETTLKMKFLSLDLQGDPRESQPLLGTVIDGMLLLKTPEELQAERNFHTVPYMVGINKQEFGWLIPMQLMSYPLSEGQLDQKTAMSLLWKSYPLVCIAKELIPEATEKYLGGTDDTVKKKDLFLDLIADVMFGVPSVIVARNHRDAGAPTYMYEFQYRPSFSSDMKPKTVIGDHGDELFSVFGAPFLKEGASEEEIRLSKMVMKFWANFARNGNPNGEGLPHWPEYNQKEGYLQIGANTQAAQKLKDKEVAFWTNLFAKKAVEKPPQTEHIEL

HCT-8 = test: Cytotoxicity against human HCT8 cells assessed as reduction in cell viability after 24 hrs by MTT assay; format: functional, cell-based
A549 = test: Cytotoxicity against human A549 cells assessed as reduction in cell viability after 24 hrs by MTT assay; format: functional, cell-based
Cocaine esterase = molecular target: T3, Cocaine esterase (Homo sapiens, UniProt O00748); test: Inhibition of human CE2 using fluorescein diacetate as substrate preincubated for 10 mins followed by substrate addition and measured after 10 mins by luminescence assay
T3 sequence (O00748 whole entry): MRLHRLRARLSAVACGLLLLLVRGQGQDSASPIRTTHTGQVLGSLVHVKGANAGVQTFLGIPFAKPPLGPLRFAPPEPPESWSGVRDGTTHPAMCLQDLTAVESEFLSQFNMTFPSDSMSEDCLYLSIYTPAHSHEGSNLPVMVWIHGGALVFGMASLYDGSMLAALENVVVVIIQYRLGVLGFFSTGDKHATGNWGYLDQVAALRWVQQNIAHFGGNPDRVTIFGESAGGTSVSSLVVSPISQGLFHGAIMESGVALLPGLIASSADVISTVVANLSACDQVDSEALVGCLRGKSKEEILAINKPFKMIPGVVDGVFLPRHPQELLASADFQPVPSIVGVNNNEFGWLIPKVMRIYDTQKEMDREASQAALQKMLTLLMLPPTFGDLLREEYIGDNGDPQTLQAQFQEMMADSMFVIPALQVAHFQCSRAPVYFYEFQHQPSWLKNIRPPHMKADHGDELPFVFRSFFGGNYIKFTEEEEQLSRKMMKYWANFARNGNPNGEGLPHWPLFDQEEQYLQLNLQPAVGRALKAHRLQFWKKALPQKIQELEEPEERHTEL

Homo sapiens = species on record: Homo sapiens; test: Selectivity ratio of IC50 for inhibition of human CE1 […]

Structure (SMILES) | inhibition [1] | Activity [2] | Activity (A2780) | Activity (Peritoneal macrophage) | Activity (Staphylococcus aureus) | Activity (BGC-823) | Activity [3] | Activity (Escherichia coli) | Activity (HepG2) | Activity (Bel-7402) | IC50 (Liver carboxylesterase 1) | Activity (HCT-8) | Activity (A549) | IC50 (Cocaine esterase) | Ratio IC50 (Homo sapiens)
COc1cc2c(cc1OC)[C@@]1(Oc3c(ccc(OC)c3OC)[C@]1(C)O)N(C=O)CC2 | inactive | inactive | inactive | inactive | inactive | inactive | inactive | inactive | inactive | inactive | > 100 µM | inactive | inactive | – | –
COc1cc2cc[n+]3c(c2cc1OC)[C@](C)(O)c1ccc(OC)c(OC)c1C3 | inactive | inactive | inactive | inactive | inactive | inactive | inactive | inactive | inactive | inactive | > 100 µM | inactive | inactive | 13.2 µM | 7.6
COc1cc2c(cc1OC)C([C@](C)(OC)c1ccc(OC)c(OC)c1O)=NCC2 | inactive | inactive | inactive | inactive | inactive | inactive | inactive | inactive | inactive | inactive | > 100 µM | inactive | inactive | 5 µM | 20
COc1cc2cc[n+]3c(c2cc1OC)[C@@](C)(O)c1ccc(OC)c(OC)c1C3 | inactive | inactive | inactive | inactive | inactive | inactive | inactive | inactive | inactive | inactive | > 100 µM | inactive | inactive | 4.6 µM | 21.8
O=[N+]([O-])c1ccc(OP(=O)(O)Oc2ccc([N+](=O)[O-])cc2)cc1 | – | – | – | – | – | – | – | – | – | – | 0.2 µM | – | – | – | –
COc1cc2c(cc1OC)C([C@@](C)(OC)c1ccc(OC)c(OC)c1O)=NCC2 | inactive | inactive | inactive | inactive | inactive | inactive | inactive | inactive | inactive | inactive | > 100 µM | inactive | inactive | 9.3 µM | 10.8
COc1cc2ccnc([C@]3(C)OC(=O)c4c3ccc(OC)c4OC)c2cc1OC | inactive | inactive | inactive | inactive | inactive | inactive | inactive | inactive | inactive | inactive | > 100 µM | inactive | inactive | 3.5 µM | 28.9
COc1cc2ccnc([C@H](C)c3ccc(OC)c(OC)c3O)c2cc1OC | inactive | inactive | inactive | inactive | inactive | inactive | inactive | inactive | inactive | inactive | – | inactive | inactive | > 100 µM | –
COc1cc2ccnc([C@@]3(C)OC(=O)c4c3ccc(OC)c4OC)c2cc1OC | inactive | inactive | inactive | inactive | inactive | inactive | inactive | inactive | inactive | inactive | > 100 µM | inactive | inactive | 2 µM | 49.3
COc1cc2c(cc1OC)[C@]1(Oc3c(ccc(OC)c3OC)[C@@]1(C)O)N(C=O)CC2 | inactive | inactive | inactive | inactive | inactive | inactive | inactive | inactive | inactive | inactive | > 100 µM | inactive | inactive | – | –
COc1cc2c(cc1OC)C([C@H](C)c1ccc(OC)c(OC)c1O)=NCC2 | inactive | inactive | inactive | inactive | inactive | inactive | inactive | inactive | inactive | inactive | > 100 µM | inactive | inactive | 7.1 µM | 14.1
COc1cc2ccnc([C@@H](C)c3ccc(OC)c(OC)c3O)c2cc1OC | inactive | inactive | inactive | inactive | inactive | inactive | inactive | inactive | inactive | inactive | – | inactive | inactive | > 100 µM | –
COc1cc2c(cc1OC)C([C@@H](C)c1ccc(OC)c(OC)c1O)=NCC2 | inactive | inactive | inactive | inactive | inactive | inactive | inactive | inactive | inactive | inactive | > 100 µM | inactive | inactive | 8.7 µM | 11.6
